{"source": "ChEMBL document CHEMBL4138197", "about": "“Design, synthesis and pharmacological evaluation of N-(5-chloro-2,4-dihydroxybenzoyl)-(R)-N-arylmethyl-1,2,3,4-tetrahydro-3-isoquinolinecarboxamides as potent Hsp90 inhibitors” (Eur J Med Chem, 2018)", "key": {"MDA-MB-231 [1]": {"test_system": "MDA-MB-231", "assay": "Antiproliferative activity against human MDA-MB-231 cells after 72 hrs by SRB assay", "format": "functional, cell-based", "conditions": "MDA-MB-231, 72 h"}, "[2]": {"target": "Heat shock protein HSP 90-alpha (Homo sapiens) (UniProt P07900)", "assay": "Binding affinity to HSP90alpha in HEK293T cells assessed as induction of thermal stabilisation of HSP90alpha at 10 uM pre-incubated for 3 hrs followed by heating at 37 to 63 degC for 3 mins then subsequent cooling for 3 mins by Western blot-based CESTA relative to beta actin", "format": "cell-based"}, "[3]": {"target": "Heat shock protein HSP 90-alpha (Homo sapiens) (UniProt P07900)", "assay": "Inhibition of HSP90alpha in human MDA-MB-453 cells assessed as down-regulation of EGFR levels by Western blot analysis", "format": "cell-based"}, "[4]": {"target": "Heat shock protein HSP 90-alpha (Homo sapiens) (UniProt P07900)", "assay": "Inhibition of HSP90alpha in human MDA-MB-453 cells assessed as down-regulation of CDK4 levels by Western blot analysis", "format": "cell-based"}, "[5]": {"target": "Heat shock protein HSP 90-alpha (Homo sapiens) (UniProt P07900)", "assay": "Inhibition of HSP90alpha in human MDA-MB-453 cells assessed as down-regulation of CHK1 levels by Western blot analysis", "format": "cell-based"}, "[6]": {"target": "Heat shock protein HSP 90-alpha (Homo sapiens) (UniProt P07900)", "assay": "Inhibition of HSP90alpha in human MDA-MB-453 cells assessed as down-regulation of C-RAF levels by Western blot analysis", "format": "cell-based"}, "[7]": {"target": "Heat shock protein HSP 90-alpha (Homo sapiens) (UniProt P07900)", "assay": "Inhibition of HSP90alpha in human MDA-MB-453 cells assessed as down-regulation of AKT levels by Western blot analysis", "format": "cell-based"}, "MDA-MB-453 [8]": {"test_system": "MDA-MB-453", "assay": "Cell cycle arrest in human MDA-MB-453 cells assessed as increase in accumulation at G0/G1 phase at 0.25 to 1 uM after 12 hrs by propidium iodide-staining based flow cytometry", "format": "functional"}, "SH-SY5Y": {"test_system": "SH-SY5Y", "assay": "Antiproliferative activity against human SH-SY5Y cells by SRB assay", "format": "functional, cell-based"}, "U-251": {"test_system": "U-251", "assay": "Antiproliferative activity against human U251 cells by SRB assay", "format": "functional, cell-based"}, "HeLa": {"test_system": "HeLa", "assay": "Antiproliferative activity against human HeLa cells by SRB assay", "format": "functional, cell-based"}, "A549": {"test_system": "A549", "assay": "Antiproliferative activity against human A549 cells by SRB assay", "format": "functional, cell-based"}, "HepG2": {"test_system": "HepG2", "assay": "Antiproliferative activity against human HepG2 cells by SRB assay", "format": "functional, cell-based"}, "PC-3": {"test_system": "PC-3", "assay": "Antiproliferative activity against human PC3 cells by SRB assay", "format": "functional, cell-based"}, "MDA-MB-231 [9]": {"test_system": "MDA-MB-231", "assay": "Antiproliferative activity against human MDA-MB-231 cells by SRB assay", "format": "functional, cell-based"}, "MDA-MB-453 [10]": {"test_system": "MDA-MB-453", "assay": "Induction of apoptosis in human MDA-MB-453 cells after 48 hrs by Annexin V-FITC/propidium iodide-staining based flow cytometry", "format": "functional, cell-based"}, "MDA-MB-453 [11]": {"test_system": "MDA-MB-453", "assay": "Induction of apoptosis in human MDA-MB-453 cells assessed as early apoptotic cells at 0.25 uM after 48 hrs by Annexin V-FITC/propidium iodide-staining based flow cytometry (reference value: 1.65%)", "format": "functional"}, "MDA-MB-453 [12]": {"test_system": "MDA-MB-453", "assay": "Induction of apoptosis in human MDA-MB-453 cells assessed as late apoptotic cells at 1 uM after 48 hrs by Annexin V-FITC/propidium iodide-staining based flow cytometry (reference value: 3.40%)", "format": "functional"}, "MDA-MB-453 [13]": {"test_system": "MDA-MB-453", "assay": "Induction of apoptosis in human MDA-MB-453 cells assessed as late apoptotic cells at 4 uM after 48 hrs by Annexin V-FITC/propidium iodide-staining based flow cytometry (reference value: 3.40%)", "format": "functional"}, "MDA-MB-453 [14]": {"test_system": "MDA-MB-453", "assay": "Induction of apoptosis in human MDA-MB-453 cells assessed as increase in cleaved caspase3 activity at 0.25 uM up to 48 hrs by Western blot analysis", "format": "functional, cell-based"}, "MDA-MB-453 [15]": {"test_system": "MDA-MB-453", "assay": "Induction of apoptosis in human MDA-MB-453 cells assessed as increase in cleaved caspase3 activity at 0.25 uM up to 48 hrs in presence of z-VAD-fmk by Western blot analysis", "format": "functional, cell-based"}, "MDA-MB-453 [16]": {"test_system": "MDA-MB-453", "assay": "Induction of apoptosis in human MDA-MB-453 cells assessed as increase in cleaved PARP activity at 0.25 uM up to 48 hrs in presence of z-VAD-fmk by Western blot analysis", "format": "functional, cell-based"}, "MDA-MB-453 [17]": {"test_system": "MDA-MB-453", "assay": "Induction of apoptosis in human MDA-MB-453 cells assessed downregulation of bcl-xl expression at 0.25 uM at 48 hrs by Western blot analysis", "format": "functional, cell-based"}, "MDA-MB-453 [18]": {"test_system": "MDA-MB-453", "assay": "Induction of apoptosis in human MDA-MB-453 cells assessed upregulation of bid expression at 0.25 uM by Western blot analysis", "format": "functional, cell-based", "conditions": "TDE = time-dependent effect"}, "MDA-MB-453 [19]": {"test_system": "MDA-MB-453", "assay": "Induction of apoptosis in human MDA-MB-453 cells assessed upregulation of bim expression at 0.25 uM by Western blot analysis", "format": "functional, cell-based", "conditions": "TDE = time-dependent effect"}, "[20]": {"target": "T1, Heat shock protein HSP90 (Homo sapiens) (UniProt P07900+P08238)", "assay": "Inhibition of HSP90 in human MDA-MB-453 cells assessed as suppression of TNFalpha-induced NFkappaB activation by measuring reduction in IKBalpha degradation at 0.25 uM after 24 hrs by Western blot analysis", "format": "cell-based"}, "[21]": {"target": "T1, Heat shock protein HSP90 (Homo sapiens)", "assay": "Inhibition of HSP90 in human MDA-MB-453 cells assessed as downmodulation of IKKbeta expression at 0.25 uM up to 48 hrs by Western blot analysis", "format": "cell-based"}, "[22]": {"target": "T2, MAP kinase p38 (Homo sapiens) (UniProt O15264+Q15759+Q16539+P53778)", "assay": "Induction of p38 phosphorylation in human MDA-MB-453 cells at 0.25 uM after 48 hrs by Western blot analysis", "format": "cell-based"}, "[23]": {"target": "T2, MAP kinase p38 (Homo sapiens)", "assay": "Induction of p38 phosphorylation in human MDA-MB-453 cells at 0.25 uM after 48 hrs in presence of […] by Western blot analysis", "format": "cell-based"}, "[24]": {"target": "T2, MAP kinase p38 (Homo sapiens)", "assay": "Induction of p38 in human MDA-MB-453 cells assessed as upregulation of Hsp27 Ser82 phosphorylation at Ser82 at 0.25 uM after 2 hrs by Western blot analysis", "format": "cell-based"}, "[25]": {"target": "NF-kappa-B essential modulator (Homo sapiens) (UniProt Q9Y6K9)", "sequence (Q9Y6K9 whole entry)": "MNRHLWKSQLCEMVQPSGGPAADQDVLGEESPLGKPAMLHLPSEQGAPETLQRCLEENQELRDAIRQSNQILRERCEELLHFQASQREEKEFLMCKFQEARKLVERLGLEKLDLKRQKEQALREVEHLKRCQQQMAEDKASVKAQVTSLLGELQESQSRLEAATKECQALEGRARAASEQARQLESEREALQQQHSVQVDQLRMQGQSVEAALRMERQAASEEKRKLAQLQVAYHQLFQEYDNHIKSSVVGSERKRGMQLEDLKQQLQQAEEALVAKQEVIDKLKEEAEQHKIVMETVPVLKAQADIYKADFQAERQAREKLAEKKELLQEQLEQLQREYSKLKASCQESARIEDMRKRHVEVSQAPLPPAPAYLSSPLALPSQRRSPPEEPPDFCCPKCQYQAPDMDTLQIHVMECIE", "assay": "Induction of IKKgamma association to hsp27 in human MDA-MB-453 cells at 0.25 uM after 6 hrs by immunoprecipitation and Western analysis", "format": "cell-based"}, "SW480": {"test_system": "SW480", "assay": "Antiproliferative activity against human SW480 cells by SRB assay", "format": "functional, cell-based"}}, "note": "Activity calls are given as the source filed them. The rule behind the calls is not given here."}
{"smiles": "O=C(NCc1ccncc1)[C@H]1Cc2ccccc2CN1C(=O)c1cc(Cl)c(O)cc1O", "values": [{"measurement": "IC50", "setting": "MDA-MB-231 [1]", "result": 300, "unit": "nM"}, {"measurement": "Activity", "setting": "[2]", "result": "Active"}, {"measurement": "inhibition", "setting": "[3]", "result": "Dose-dependent effect"}, {"measurement": "inhibition", "setting": "[4]", "result": "Dose-dependent effect"}, {"measurement": "inhibition", "setting": "[5]", "result": "Dose-dependent effect"}, {"measurement": "inhibition", "setting": "[6]", "result": "Dose-dependent effect"}, {"measurement": "inhibition", "setting": "[7]", "result": "Dose-dependent effect"}, {"measurement": "Activity", "setting": "MDA-MB-453 [8]", "result": "Active"}, {"measurement": "Activity", "setting": "SH-SY5Y", "result": "Active"}, {"measurement": "Activity", "setting": "U-251", "result": "Active"}, {"measurement": "Activity", "setting": "HeLa", "result": "Active"}, {"measurement": "Activity", "setting": "A549", "result": "Active"}, {"measurement": "Activity", "setting": "HepG2", "result": "Active"}, {"measurement": "Activity", "setting": "PC-3", "result": "Active"}, {"measurement": "Activity", "setting": "MDA-MB-231 [9]", "result": "Active"}, {"measurement": "Activity", "setting": "MDA-MB-453 [10]", "result": "Dose-dependent effect"}, {"measurement": "Activity", "setting": "MDA-MB-453 [11]", "result": 4.26, "unit": "%"}, {"measurement": "Activity", "setting": "MDA-MB-453 [12]", "result": 15.11, "unit": "%"}, {"measurement": "Activity", "setting": "MDA-MB-453 [13]", "result": 18.32, "unit": "%"}, {"measurement": "Activity", "setting": "MDA-MB-453 [14]", "result": "Active"}, {"measurement": "Activity", "setting": "MDA-MB-453 [15]", "result": "inactive"}, {"measurement": "Activity", "setting": "MDA-MB-453 [16]", "result": "inactive"}, {"measurement": "Activity", "setting": "MDA-MB-453 [17]", "result": "Active"}, {"measurement": "Activity", "setting": "MDA-MB-453 [18]", "result": "Tde"}, {"measurement": "Activity", "setting": "MDA-MB-453 [19]", "result": "Tde"}, {"measurement": "inhibition", "setting": "[20]", "result": "Active"}, {"measurement": "inhibition", "setting": "[21]", "result": "Active"}, {"measurement": "Activity", "setting": "[22]", "result": "Active"}, {"measurement": "Activity", "setting": "[23]", "result": "inactive"}, {"measurement": "Activity", "setting": "[24]", "result": "Active"}, {"measurement": "Activity", "setting": "[25]", "result": "Active"}, {"measurement": "Activity", "setting": "SW480", "result": "Active"}]}
